Reference: PMC2576176, “Direct activation of Transient Receptor Potential Vanilloid 1(TRPV1) by Diacylglycerol (DAG)” (Molecular Pain, 2008)

Target: T1, TRPV1 (transient receptor potential vanilloid 1, capsaicin receptor) (Rattus norvegicus, UniProt O35433)
T1 construct: full-length wild-type rat TRPV1 in pcDNA3.1(+), transient transfection in HEK 293 cells; fura-2 Ca2+ imaging
Assay: fura-2 Ca2+ imaging concentration-response in TRPV1-expressing HEK […] cells; whole-cell patch clamp, cobalt uptake, Y511A mutant and competition with capsaicin
Type: cell-based

T1 sequence (O35433 whole entry): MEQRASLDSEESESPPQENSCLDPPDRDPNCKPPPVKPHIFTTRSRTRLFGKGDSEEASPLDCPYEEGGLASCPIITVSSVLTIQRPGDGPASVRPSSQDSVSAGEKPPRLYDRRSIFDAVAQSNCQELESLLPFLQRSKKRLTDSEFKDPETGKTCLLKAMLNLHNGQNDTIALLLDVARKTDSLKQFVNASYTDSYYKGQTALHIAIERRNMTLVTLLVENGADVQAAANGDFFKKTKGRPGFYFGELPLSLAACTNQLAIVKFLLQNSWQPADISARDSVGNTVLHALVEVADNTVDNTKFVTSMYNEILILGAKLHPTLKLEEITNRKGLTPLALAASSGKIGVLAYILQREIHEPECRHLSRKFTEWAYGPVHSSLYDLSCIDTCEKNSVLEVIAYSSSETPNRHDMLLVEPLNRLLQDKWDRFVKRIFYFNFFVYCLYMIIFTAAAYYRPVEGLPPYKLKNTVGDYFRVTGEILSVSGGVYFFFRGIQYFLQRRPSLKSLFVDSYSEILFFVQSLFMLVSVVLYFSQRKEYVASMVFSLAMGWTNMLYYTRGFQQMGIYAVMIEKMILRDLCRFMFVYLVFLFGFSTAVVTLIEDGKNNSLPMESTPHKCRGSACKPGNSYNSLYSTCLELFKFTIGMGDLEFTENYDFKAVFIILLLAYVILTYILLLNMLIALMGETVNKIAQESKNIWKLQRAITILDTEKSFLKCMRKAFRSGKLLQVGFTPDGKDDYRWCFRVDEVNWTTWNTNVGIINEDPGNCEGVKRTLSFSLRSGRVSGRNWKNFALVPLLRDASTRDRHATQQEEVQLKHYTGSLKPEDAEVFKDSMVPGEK

CCCCCCCC/C=C\CCCCCCCC(=O)OC[C@H](CO)OC(C)=O [OAG, 1-oleoyl-2-acetyl-sn-glycerol]
EC50: 13 µM
